By IC50 is commonly meant the midpoint of a concentration-inhibition curve.

The target of this assay is T1, human C3a receptor (C3aR) (Homo sapiens, UniProt Q16581).
T1 construct: expressed in transfected cells
T1 sequence (Q16581 1-482): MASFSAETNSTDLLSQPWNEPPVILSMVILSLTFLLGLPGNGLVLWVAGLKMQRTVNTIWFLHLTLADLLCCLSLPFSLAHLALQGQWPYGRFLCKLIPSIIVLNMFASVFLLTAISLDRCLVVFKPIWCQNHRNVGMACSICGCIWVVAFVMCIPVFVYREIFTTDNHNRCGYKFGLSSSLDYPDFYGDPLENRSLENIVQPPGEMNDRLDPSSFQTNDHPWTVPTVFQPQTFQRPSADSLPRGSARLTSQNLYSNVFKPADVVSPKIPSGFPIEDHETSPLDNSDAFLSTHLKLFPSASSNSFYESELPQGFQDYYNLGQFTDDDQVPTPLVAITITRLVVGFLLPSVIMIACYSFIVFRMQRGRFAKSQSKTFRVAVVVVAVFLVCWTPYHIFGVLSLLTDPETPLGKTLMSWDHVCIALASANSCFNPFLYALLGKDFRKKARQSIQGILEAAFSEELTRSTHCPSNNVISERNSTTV
The assay is described as follows: Inhibition of human [125I]-C3a binding to human C3a receptor (SPA, membranes of HEK293 cells expressing recombinant C3aR). The following applies: 0.1 nM [125I]-C3a, 3 hours at room temperature; Table 6. The procedure, abridged:
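HEK293 C3aR membranes were pre-coupled to WGA SPA beads and incubated 3 h at room temperature with 0.1 nM [125I]-C3a in HEPES pH 7.4 buffer containing 0.25% BSA and 0.2% CHAPS, DMSO ≤1%. Nonspecific binding was defined with 1 μM unlabeled C3a. IC50 came from nonlinear least-squares fitting.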

Counter-ions that a name gives are not always drawn. Where only a bound is given, the exact number is not on record here.

For the molecule `CC(C)/N=C(\NCCC[C@H](NC(=O)c1cccn(C(c2ccccc2)c2ccccc2)c1=O)C(=O)O)NC(C)C` [Compound 93, (2S)-5-({Bis[(1-methylethyl)amino]methylidene}amino)-2-({[1-(diphenylmethyl)-2-oxo-1,2-dihydropyridin-3-yl]carbonyl}amino)pentanoic acid], the IC50 was in the range of 50 to 500 nM.
In the case of `CC(=N)NCC[C@H](NC(=O)c1cccn(C(c2ccccc2)c2ccccc2)c1=O)C(=O)O` [Compound 94, (2S)-2-({[1-(diphenylmethyl)-2-oxo-1,2-dihydropyridin-3-yl]carbonyl}amino)-4-(ethanimidoylamino)butanoic acid•TFA] it was 50 to 500 nM; in that of `CCN(CC)CCC[C@H](NC(=O)c1cccn(C(c2ccccc2)c2ccccc2)c1=O)C(=O)O` [Compound 95, (2S)-5-(Diethylamino)-2-({[1-(diphenylmethyl)-2-oxo-1,2-dihydropyridin-3-yl]carbonyl}amino)pentanoic acid], less than 50 nM.
In the case of `N=C(CC(=O)O)NCCC[C@H](NC(=O)c1cccn(C(c2ccccc2)c2ccccc2)c1=O)C(=O)O` [Compound 96, (2S)-5-[(2-carboxyethanimidoyl)amino]-2-({[1-(diphenylmethyl)-2-oxo-1,2-dihydropyridin-3-yl]carbonyl}amino)pentanoic acid•TFA] it was less than 50 nM; in that of `N=C(N)NCCC[C@H](NC(=O)c1ccc(C(c2ccccc2)c2ccccc2)s1)C(=O)O` [Compound 97, (2S)-5-Carbamimidamido-2-({[5-(diphenylmethyl)thiophen-2-yl]carbonyl}amino)pentanoic acid], less than 50 nM.
Turning to `N=C(N)NCCC[C@H](NC(=O)c1ccc(C(O)(c2ccccc2)c2ccccc2)s1)C(=O)O` [Compound 98, (2S)-5-Carbamimidamido-2-[({5-[hydroxy(diphenyl)methyl]thiophen-2-yl}carbonyl)amino]pentanoic acid], the IC50 is less than 50 nM.
In the case of `N=C(N)NC(=O)CC[C@H](NC(=O)c1ccc(C(c2ccccc2)c2ccccc2)s1)C(=O)O` [Compound 99, (2S)-5-Carbamimidamido-2-({[5-(diphenylmethyl)thiophen-2-yl]carbonyl}amino)-5-oxopentanoicacid] it was less than 50 nM; in that of `CC(=N)NCCC[C@H](NC(=O)c1cccn(Cc2ccccc2)c1=O)C(=O)O` [Compound 100, (2S)-2-{[(1-benzyl-2-oxo-1,2-dihydropyridin-3-yl)carbonyl]amino}-5-(ethanimidoylamino)pentanoic acid•TFA], 500 to 20000 nM.
In the case of `CC(=N)NCCC[C@H](NC(=O)c1cccn(Cc2cccc(Cl)c2)c1=O)C(=O)O` [Compound 101, (2S)-2-({[1-(3-chlorobenzyl)-2-oxo-1,2-dihydropyridin-3-yl]carbonyl}amino)-5-(ethanimidoylamino)pentanoic acid•TFA], the IC50 is 50 to 500 nM.
`CC(=N)NCCC[C@H](NC(=O)c1ccc(C(c2ccccc2)c2ccccc2)o1)C(=O)O` [Compound 102, (2S)-2-({[5-(Diphenylmethyl)furan-2-yl]carbonyl}amino)-5-(ethanimidoylamino)pentanoic acid]: the IC50 was in the range of 50 to 500 nM.
Consider `CC(=N)NCCC[C@H](NC(=O)c1ccc(C(c2ccccc2)c2ccccc2)s1)C(=O)O` [Compound 103, (2S)-2-({[5-(diphenylmethyl)thiophen-2-yl]carbonyl}amino)-5-(ethanimidoylamino)pentanoic acid•TFA], for which the IC50 fell in the range of 50 to 500 nM.
For `CC(=N)NCCC[C@H](NC(=O)c1cccn(Cc2ccccc2Cl)c1=O)C(=O)O` [Compound 104, (2S)-2-({[1-(2-chlorobenzyl)-2-oxo-1,2-dihydropyridin-3-yl]carbonyl}amino)-5-(ethanimidoylamino)pentanoic acid•TFA], the IC50 lay within 500 to 20000 nM.
Take `O=C(N[C@@H](Cc1c[nH]c2ccccc12)C(=O)O)c1cccn(C(c2ccccc2)c2ccccc2)c1=O` [Compound 105, (2S)-2-({[1-(Diphenylmethyl)-2-oxo-1,2-dihydropyridin-3-yl]carbonyl}amino)-3-(1H-indol-3-yl)propanoicacid]: the IC50 is 50 to 500 nM.
In the case of `CC(=N)NCCC[C@H](NC(=O)c1cccn(Cc2cccc(C(F)(F)F)c2)c1=O)C(=O)O` [Compound 106, (2S)-5-(ethanimidoylamino)-2-[({2-oxo-1-[3-(trifluoromethyl)benzyl]-1,2-dihydropyridin-3-yl}carbonyl)amino]pentanoic acid•TFA] it was 50 to 500 nM.
`CC(=N)NCCC[C@H](NC(=O)c1cccn(Cc2ccccc2C(F)(F)F)c1=O)C(=O)O` [Compound 107, (2S)-5-(ethanimidoylamino)-2-[({2-oxo-1-[2-(trifluoromethyl)benzyl]-1,2-dihydropyridin-3-yl}carbonyl)amino]pentanoic acid•TFA]: the IC50 lay in the range of 500 to 20000 nM.
In the case of `CC(=N)NCCC[C@H](NC(=O)c1ccc(C(c2ccccc2)c2ccccc2)cc1)C(=O)O` [Compound 108, (2S)-2-({[4-(Diphenylmethyl)phenyl]carbonyl}amino)-5-(ethanimidoylamino)pentanoic acid], the IC50 is 500 to 20000 nM.
In the case of `CC(=N)NCCC[C@H](NC(=O)c1cccn(Cc2cccc(Br)c2)c1=O)C(=O)O` [Compound 109, (2S)-2-({[1-(3-bromobenzyl)-2-oxo-1,2-dihydropyridin-3-yl]carbonyl}amino)-5-(ethanimidoylamino)pentanoic acid•TFA] it was 50 to 500 nM; in that of `CC(=N)NCCC[C@H](NC(=O)c1cccn(Cc2ccc(Br)cc2)c1=O)C(=O)O` [Compound 110, (2S)-2-({[1-(4-bromobenzyl)-2-oxo-1,2-dihydropyridin-3-yl]carbonyl}amino)-5-(ethanimidoylamino)pentanoic acid•TFA], 50 to 500 nM.
Take `N=C(N)NC(=O)CC[C@H](NC(=O)c1ccc(C(c2ccccc2)c2ccccc2)cc1)C(=O)O` [Compound 111, (2S)-5-Carbamimidamido-2-({[4-(diphenylmethyl)phenyl]carbonyl}amino)-5-oxopentanoic acid]: the IC50 was less than 50 nM.
With `CC(=N)NCCC[C@H](NC(=O)c1cccc(C(c2ccccc2)c2ccccc2)c1)C(=O)O` [Compound 112, (2S)-2-({[3-(Diphenylmethyl)phenyl]carbonyl}amino)-5-(ethanimidoylamino)pentanoic acid], the IC50 is 50 to 500 nM.
`CC(=N)NCCC[C@H](NC(=O)c1cccn(Cc2ccc(C(F)(F)F)cc2)c1=O)C(=O)O` [Compound 113, (2S)-5-(ethanimidoylamino)-2-[({2-oxo-1-[4-(trifluoromethyl)benzyl]-1,2-dihydropyridin-3-yl}carbonyl)amino]pentanoic acid•TFA]: the IC50 was 500 to 20000 nM.
The same measure for `CC(=N)NCCC[C@H](NC(=O)c1cccn(Cc2cccc(I)c2)c1=O)C(=O)O` [Compound 114, (2S)-5-(ethanimidoylamino)-2-({[1-(3-iodobenzyl)-2-oxo-1,2-dihydropyridin-3-yl]carbonyl}amino)pentanoic acid•TFA]: 50 to 500 nM; for `CC(=N)NCCC[C@H](NC(=O)c1cccn(Cc2cc(Br)cc(Br)c2)c1=O)C(=O)O` [Compound 115, (2S)-2-({[1-(3,5-dibromobenzyl)-2-oxo-1,2-dihydropyridin-3-yl]carbonyl}amino)-5-(ethanimidoylamino)pentanoic acid•TFA]: less than 50 nM.
In the case of `CC(=N)NCCC[C@H](NC(=O)c1cccn(Cc2cc(Cl)cc(Cl)c2)c1=O)C(=O)O` [Compound 116, (2S)-2-({[1-(3,5-dichlorobenzyl)-2-oxo-1,2-dihydropyridin-3-yl]carbonyl}amino)-5-(ethanimidoylamino)pentanoic acid•TFA], the concentration for half-maximal inhibition (IC50) was less than 50 nM.
The same measure for `CC(=N)NCCC[C@H](NC(=O)c1cccn(Cc2cc(F)cc(F)c2)c1=O)C(=O)O` [Compound 117, (2S)-2-({[1-(3,5-difluorobenzyl)-2-oxo-1,2-dihydropyridin-3-yl]carbonyl}amino)-5-(ethanimidoylamino)pentanoic acid•TFA]: 50 to 500 nM; for `CCCC(=N)NCCC[C@H](NC(=O)c1ccc(C(c2ccccc2)c2ccccc2)s1)C(=O)O` [Compound 118, (2S)-5-(butanimidoylamino)-2-({[5-(diphenylmethyl)thiophen-2-yl]carbonyl}amino)pentanoic acid•TFA]: 500 to 20000 nM; for `N=C(NCCC[C@H](NC(=O)c1ccc(C(c2ccccc2)c2ccccc2)s1)C(=O)O)c1ccccn1` [Compound 119, (2S)-2-({[5-(diphenylmethyl)thiophen-2-yl]carbonyl}amino)-5-{[imino(pyridin-2-yl)methyl]amino}pentanoic acid•TFA]: 500 to 20000 nM.
For `N=C(NCCC[C@H](NC(=O)c1ccc(C(c2ccccc2)c2ccccc2)s1)C(=O)O)c1ccccc1` [Compound 120, (2S)-2-({[5-(diphenylmethyl)thiophen-2-yl]carbonyl}amino)-5-{[imino(phenyl)methyl]amino}pentanoic acid•TFA], the IC50 lay within 500 to 20000 nM.
The same measure for `N=C(NCCC[C@H](NC(=O)c1ccc(C(c2ccccc2)c2ccccc2)s1)C(=O)O)C1CC1` [Compound 121, (2S)-5-{[cyclopropyl(imino)methyl]amino}-2-({[5-(diphenylmethyl)thiophen-2-yl]carbonyl}amino)pentanoic acid•TFA]: 500 to 20000 nM.
